# Reference: article PMC6069857, “Effects of novel HDAC inhibitors on urothelial carcinoma cells” (Clinical Epigenetics, 2018)
# pIC50: −log10 of the molar value.
# Tests used:
# UM-UC-3-LV = assay: MTT viability assay (CC50); type: cell-based, human; details: UM-UC-3-LV (empty vector), 72 h
# Protocol: (§1) HDAC4 cDNA from the pcDNA-HDAC4-FLAG plasmid kindly provided by Tso-Pang Yao (Addgene plasmid # 30485) was cloned into the lentiviral vector puc2CL12IPwo using standard techniques, thereby creating the vector puc2CL12IPwo-HDAC4-FLAG (Additional file 1: Figure S1). Integrity of the HDAC4 coding sequence was verified by sequencing. Lentivirus production and cell transduction were performed as previously described. In brief, to produce replication-deficient lentiviruses, HEK-293T cells were transfected with helper plasmid expression construct (pCD/NL-BH [35]), envelope vector (pczVSV-G [36]), and the vector plasmids puc2CL12IPwo or puc2CL12IPwo-HDAC4-FLAG. Viral particles were harvested 48 h after transfection and used to transduce VM-CUB1 and UM-UC-3 cells using 8 μg/ml polybrene (Sigma Aldrich, St. Louis, MO). Twenty-four hours after transduction, the supernatant containing viral particles was removed and the transduced cells were selected with 4 (VM-CUB1) or 1 (UM-UC-3) μg/ml puromycin (Invitrogen, Carlsbad, CA) for 7 days. Stable overexpression of HDAC4 was confirmed by Western blot analysis of cells from several passages.
# (§2) For the determination of cellular mean cytotoxic concentration (CC50), UCCs, non-malignant control cells, and HDAC4-overexpressing clones were seeded in a 96-well format and treated once with a range of defined concentrations of the HDAC inhibitors. After 72 h, viability was quantified by NAD(P)H-dependent 3-(4,5-dimethylthiazol-2-yl)-2,5-diphenyltetrazolium bromide dye reduction assay (MTT, Sigma Aldrich, St. Louis, MO). CC50 values were estimated from three independent experiments by non-linear regression analysis (four-parameter logistic equation) using Prism 4.0 (Graph Pad) or Origin 8.0 (Origin Lab, Northhampton, GB). For time-dependent proliferation experiments, viability of untreated or inhibitor-treated cells was measured after 24, 48, and 72 h.
# VM-CUB1-HDAC4 = assay: MTT viability assay (CC50); type: cell-based, human; details: VM-CUB-HDAC4 (HDAC4-overexpressing), 72 h
# Protocol: as §1, §2
# VM-CUB1-LV = assay: MTT viability assay (CC50); type: cell-based, human; details: VM-CUB1-LV (empty vector), 72 h
# Protocol: as §1, §2
# [1] = system: UC cell lines (VM-CUB1, UM-UC-3, 639-V); assay: MTT viability assay, UC cell lines taken together; type: cell-based, human; details: across VM-CUB1, UM-UC-3, 639-V; MTT, 72 h
# Protocol: Further experiments were performed in VM-CUB1 and UM-UC-3 cells overexpressing HDAC4 (see below). Standard UCCs were obtained from the DSMZ (Braunschweig, Germany) and Dr. H.B. Grossmann HB (Houston, USA). For comparison, we investigated the spontaneously immortalized normal human bladder cell line HBLAK (provided by CELLnTEC, Bern, Switzerland) and the immortalized human embryonic kidney cell line HEK-293 (provided by Dr. V. Kolb-Bachofen, Duesseldorf, Germany). Cells were cultured and treated in DMEM GlutaMAX-I (Gibco, Darmstadt, Germany; UCCs and HEK-293) supplemented with 10% fetal calf serum (Biochrom, Berlin, Germany), except for HBLAK cultured in CnT-Prime Epithelial Culture Medium (CELLnTEC, Bern, Switzerland; HBLAK), at 37 °C and 5% CO2. […]
# as §2, with “CC50 values were estimated from three independent experiments by non-linear regression analysis (four-parameter logistic equation) using Prism 4.0 (Graph Pad) or Origin 8.0 (Origin Lab, Northhampton, GB).” left out
# [2] = system: UCCs VM-CUB1, UM-UC-3, and 639-V; assay: Western blot of cleaved PARP; type: cell-based, human; details: 19i 2 μM, 48 h; especially in 639-V
# Protocol: Total protein extraction, purification of histones, and Western blot analysis were performed as previously described. Briefly, cells were incubated for 30 min on ice in RIPA-buffer (150 mM NaCl, 1% Triton X-100, 0.5% desoxycholate, 1% Nonidet P-40, 0.1% SDS, 1 mM EDTA, 50 mM TRIS (pH 7.6)) containing 10 μl/ml protease inhibitor cocktail (#P-8340, Sigma Aldrich, St. Louis, MO). Histones were extracted for detection of histone H3 and H4 acetylation by a modified published protocol employing sulfuric acid extraction and TCA-precipitation. Concentrations of total protein and histones were determined by BCA protein assay (Thermo Fisher Scientific, Carlsbad, CA). Subsequently, total cell proteins (15 μg) or extracted histones (2 μg) were separated by SDS-PAGE (total proteins 10–12% gels, histones 15% gels), transferred to PVDF membranes (Merck Millipore, Berlin, Germany), and were incubated with primary antibodies (at RT for 1 h or 4 °C overnight, see Additional file 3: Table S2) following blocking with 5% non-fat milk or BSA (bovine serum albumin) in TBST (150 mM NaCl, 10 mM TRIS, pH 7.4 and 0.1% Tween-20). […]
# HDAC4 = molecular target: T1, HDAC4 (Homo sapiens, UniProt P56524); details: older assays, given for HDAC4/5 together; cited from earlier work
# T1 construct: purchased Reaction Biology Corp. (Malvern, PA)
# HDAC5 = molecular target: T2, HDAC5 (Homo sapiens, UniProt Q9UQL6); details: older assays, given for HDAC4/5 together; cited from earlier work
# T2 construct: purchased Reaction Biology Corp. (Malvern, PA)
# HDAC1 = HDAC1 (Homo sapiens, UniProt Q13547); design: purchased Reaction Biology Corp. (Malvern, PA); details: previously reported; given for HDAC1/2 together; cited from earlier work
# HDAC6 [3] = molecular target: T3, HDAC6 (Homo sapiens, UniProt Q9UBN7); design: purchased Reaction Biology Corp. (Malvern, PA); details: previously reported; cited from earlier work
# HDAC6 [4] = molecular target: T3, HDAC6; assay: In vitro fluorescence-based HDAC inhibition assay (Reaction Biology); details: read-out: IC50 HDAC6; experiment performed once
# HDAC11 = HDAC11 (Homo sapiens, UniProt Q96DB2); assay: as above; details: read-out: IC50 HDAC11; experiment performed once
# HDAC11, sequence (Q96DB2 whole entry): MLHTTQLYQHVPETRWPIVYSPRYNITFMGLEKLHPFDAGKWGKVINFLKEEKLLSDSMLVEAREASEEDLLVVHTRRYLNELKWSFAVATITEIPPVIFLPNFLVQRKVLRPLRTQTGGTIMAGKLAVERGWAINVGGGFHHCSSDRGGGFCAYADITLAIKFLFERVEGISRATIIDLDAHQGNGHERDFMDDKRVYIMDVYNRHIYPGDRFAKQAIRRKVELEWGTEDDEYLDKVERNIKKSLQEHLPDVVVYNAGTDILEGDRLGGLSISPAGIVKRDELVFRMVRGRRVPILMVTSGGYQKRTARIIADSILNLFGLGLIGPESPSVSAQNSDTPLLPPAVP
# T3 sequence (Q9UBN7 whole entry): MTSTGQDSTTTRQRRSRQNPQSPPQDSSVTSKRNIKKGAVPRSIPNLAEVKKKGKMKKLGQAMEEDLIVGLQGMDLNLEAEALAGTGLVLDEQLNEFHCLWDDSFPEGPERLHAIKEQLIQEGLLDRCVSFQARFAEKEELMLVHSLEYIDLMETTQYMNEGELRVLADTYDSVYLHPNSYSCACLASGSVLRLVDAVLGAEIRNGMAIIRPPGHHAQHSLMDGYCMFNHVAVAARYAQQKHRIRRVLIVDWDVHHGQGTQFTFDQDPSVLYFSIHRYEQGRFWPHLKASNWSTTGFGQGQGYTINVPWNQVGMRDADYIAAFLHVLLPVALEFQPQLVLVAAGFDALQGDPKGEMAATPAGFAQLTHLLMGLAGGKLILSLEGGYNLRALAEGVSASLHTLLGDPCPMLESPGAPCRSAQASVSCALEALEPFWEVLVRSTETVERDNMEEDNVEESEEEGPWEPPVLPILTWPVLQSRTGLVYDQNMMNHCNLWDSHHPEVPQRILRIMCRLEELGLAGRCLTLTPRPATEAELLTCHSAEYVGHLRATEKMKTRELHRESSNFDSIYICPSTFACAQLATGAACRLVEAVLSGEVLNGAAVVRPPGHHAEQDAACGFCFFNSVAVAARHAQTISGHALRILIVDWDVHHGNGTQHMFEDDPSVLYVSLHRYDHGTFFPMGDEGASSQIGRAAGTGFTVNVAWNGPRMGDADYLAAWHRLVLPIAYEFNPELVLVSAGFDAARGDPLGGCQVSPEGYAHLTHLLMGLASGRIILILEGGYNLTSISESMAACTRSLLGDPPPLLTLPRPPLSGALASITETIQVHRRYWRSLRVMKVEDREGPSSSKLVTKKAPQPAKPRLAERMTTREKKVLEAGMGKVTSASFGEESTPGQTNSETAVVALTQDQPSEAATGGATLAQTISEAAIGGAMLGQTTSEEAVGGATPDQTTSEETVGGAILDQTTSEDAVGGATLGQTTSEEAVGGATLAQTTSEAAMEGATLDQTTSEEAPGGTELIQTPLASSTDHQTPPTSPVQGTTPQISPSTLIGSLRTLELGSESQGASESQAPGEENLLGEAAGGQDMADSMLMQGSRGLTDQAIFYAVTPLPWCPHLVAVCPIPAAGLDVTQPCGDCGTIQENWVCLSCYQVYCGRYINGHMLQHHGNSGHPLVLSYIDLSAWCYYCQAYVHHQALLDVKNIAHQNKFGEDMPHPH
# HDAC1, sequence (Q13547 whole entry): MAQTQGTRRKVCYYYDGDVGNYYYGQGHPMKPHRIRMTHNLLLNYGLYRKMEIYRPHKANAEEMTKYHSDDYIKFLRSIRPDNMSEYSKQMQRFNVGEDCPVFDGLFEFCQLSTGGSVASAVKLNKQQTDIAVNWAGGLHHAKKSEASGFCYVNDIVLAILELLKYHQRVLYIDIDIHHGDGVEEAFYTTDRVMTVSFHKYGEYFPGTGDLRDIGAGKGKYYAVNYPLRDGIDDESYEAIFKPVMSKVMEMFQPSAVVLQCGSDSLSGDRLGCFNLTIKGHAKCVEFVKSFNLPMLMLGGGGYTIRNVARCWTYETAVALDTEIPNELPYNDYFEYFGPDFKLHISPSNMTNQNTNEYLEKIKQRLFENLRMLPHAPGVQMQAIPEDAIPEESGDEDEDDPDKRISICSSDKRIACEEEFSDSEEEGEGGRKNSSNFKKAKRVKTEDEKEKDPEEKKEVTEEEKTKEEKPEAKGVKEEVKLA
# T1 sequence (P56524 whole entry): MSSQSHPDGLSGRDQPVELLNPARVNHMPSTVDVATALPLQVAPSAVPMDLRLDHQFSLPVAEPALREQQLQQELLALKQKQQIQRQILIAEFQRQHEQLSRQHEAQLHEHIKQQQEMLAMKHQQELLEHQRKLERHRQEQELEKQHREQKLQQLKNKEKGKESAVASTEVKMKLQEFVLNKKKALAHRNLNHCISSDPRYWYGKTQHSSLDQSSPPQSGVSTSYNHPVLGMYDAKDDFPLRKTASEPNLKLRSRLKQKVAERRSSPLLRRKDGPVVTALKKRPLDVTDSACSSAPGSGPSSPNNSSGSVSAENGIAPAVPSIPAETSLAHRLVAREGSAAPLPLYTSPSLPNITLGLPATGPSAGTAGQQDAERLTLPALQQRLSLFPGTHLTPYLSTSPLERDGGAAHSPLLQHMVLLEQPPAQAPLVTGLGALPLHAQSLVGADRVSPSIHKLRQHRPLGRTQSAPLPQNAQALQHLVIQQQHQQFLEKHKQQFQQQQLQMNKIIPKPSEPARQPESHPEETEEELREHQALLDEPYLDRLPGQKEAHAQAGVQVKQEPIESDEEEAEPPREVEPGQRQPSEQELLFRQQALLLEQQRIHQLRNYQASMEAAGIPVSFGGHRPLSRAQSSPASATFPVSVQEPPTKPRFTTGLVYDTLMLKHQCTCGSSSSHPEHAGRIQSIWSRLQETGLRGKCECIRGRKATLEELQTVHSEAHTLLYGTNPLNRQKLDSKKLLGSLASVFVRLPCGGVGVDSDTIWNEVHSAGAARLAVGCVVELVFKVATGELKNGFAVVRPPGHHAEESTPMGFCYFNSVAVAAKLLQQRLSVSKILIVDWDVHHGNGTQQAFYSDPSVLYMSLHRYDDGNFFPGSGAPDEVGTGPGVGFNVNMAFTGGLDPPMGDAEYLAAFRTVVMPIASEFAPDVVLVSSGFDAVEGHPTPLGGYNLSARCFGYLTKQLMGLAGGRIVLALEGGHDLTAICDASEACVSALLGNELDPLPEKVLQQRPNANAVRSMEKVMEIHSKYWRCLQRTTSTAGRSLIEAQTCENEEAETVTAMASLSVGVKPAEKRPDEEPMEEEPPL
# T2 sequence (Q9UQL6 whole entry): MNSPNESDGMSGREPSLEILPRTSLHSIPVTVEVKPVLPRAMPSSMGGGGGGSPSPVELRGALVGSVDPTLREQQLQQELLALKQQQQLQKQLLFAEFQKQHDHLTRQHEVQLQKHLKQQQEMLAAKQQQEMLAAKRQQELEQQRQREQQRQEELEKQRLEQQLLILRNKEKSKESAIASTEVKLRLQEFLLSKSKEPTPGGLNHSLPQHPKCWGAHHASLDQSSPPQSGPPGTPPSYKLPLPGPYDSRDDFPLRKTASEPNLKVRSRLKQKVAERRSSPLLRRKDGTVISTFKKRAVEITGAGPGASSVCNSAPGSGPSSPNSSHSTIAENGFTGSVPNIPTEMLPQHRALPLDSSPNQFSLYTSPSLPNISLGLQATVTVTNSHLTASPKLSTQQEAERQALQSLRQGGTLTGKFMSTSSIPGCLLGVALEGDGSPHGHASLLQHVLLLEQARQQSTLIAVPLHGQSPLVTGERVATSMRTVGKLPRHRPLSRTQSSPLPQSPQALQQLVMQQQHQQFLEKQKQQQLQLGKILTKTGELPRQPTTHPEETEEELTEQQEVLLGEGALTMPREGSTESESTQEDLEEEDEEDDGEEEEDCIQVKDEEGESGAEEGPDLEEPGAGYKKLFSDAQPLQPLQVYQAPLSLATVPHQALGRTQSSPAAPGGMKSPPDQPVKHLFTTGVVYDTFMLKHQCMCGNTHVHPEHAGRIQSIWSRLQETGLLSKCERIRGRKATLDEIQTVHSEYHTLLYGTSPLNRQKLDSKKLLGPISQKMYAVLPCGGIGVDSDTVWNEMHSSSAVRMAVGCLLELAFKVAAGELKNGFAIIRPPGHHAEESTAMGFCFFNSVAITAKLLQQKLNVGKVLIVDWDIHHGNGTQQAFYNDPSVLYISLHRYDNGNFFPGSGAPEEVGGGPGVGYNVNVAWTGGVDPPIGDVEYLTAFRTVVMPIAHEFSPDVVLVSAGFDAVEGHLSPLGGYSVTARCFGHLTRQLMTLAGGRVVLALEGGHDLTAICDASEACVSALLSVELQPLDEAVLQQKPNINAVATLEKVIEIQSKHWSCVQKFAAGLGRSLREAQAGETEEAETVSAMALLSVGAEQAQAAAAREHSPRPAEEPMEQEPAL
smiles,measurement,setting,value
Cc1cc(C)cc(C(=O)NOCCCCCC(=O)NO)c1 [19i],CC50,UM-UC-3-LV,790 nM
same,CC50,VM-CUB1-HDAC4,630 nM
same,CC50,VM-CUB1-LV,950 nM
same,CC50,[1],~1000 nM
same,PARP cleavage,[2],augmented
same,in vitro IC50 HDAC4,HDAC4,nanomolar range
same,in vitro IC50 HDAC5,HDAC5,nanomolar range
same,in vitro IC50 HDAC1,HDAC1,sub-micromolar
same,in vitro IC50 HDAC6,HDAC6 [3],sub-micromolar
same,pIC50,HDAC6 [4],7.49
same,pIC50,HDAC11,3.96
